Experimental data as given in patent US20240109914A1, “IMIDAZOTHIAZOLE COMPOUNDS AND ANALOGS THEREOF AND METHODS FOR TREATING NEMATODE INFECTIONS IN PLANTS” (The Governing Council of The University of Toronto, priority 2021, published 2024).
Read-outs that look alike come from different tables or passages of the source.

Columns and labels:
M. hapla eggs = experiment: Meloidogyne hapla in vitro egg hatch assay; type: in vivo; conditions: 45 μM; for Number of Hatched Eggs: 8 days at room temperature, about 90 eggs per well, tested once; for Number of Hatched Eggs z-score: 8 days, z-score vs 8 untreated DMSO wells
Procedure: The M. hapla were originally obtained from a soil sample of muck soil from Ste-Clotilde, Quebec, Canada. Using tweezers, egg masses were carefully removed from root material from infested carrot roots. Eggs were liberated from the egg masses using a mild sodium hypochlorite bleaching protocol, whereby egg masses were bleached with a 10% commercial bleach (sodium hypochlorite) solution for 4 minutes with vigorous shaking, and then washed 5 times with deionized water. 50 μL of deionized water was added to each well of two 96-well polystyrene culture plates, and 0.5 μL of chemical (or DMSO alone) was added to each well. Approximately 90 eggs were added to each well in 49.5 ul of deionized water. The plates were sealed with parafilm and incubated for 8 days at room temperature without shaking in a Tupperware box filled with wet paper towels. After the 8-day incubation, the number of hatched eggs was counted for each treatment and for the untreated controls. Each chemical treatment was tested only once. 8 separate untreated DMSO controls were included in the experiment. The z-score for each treatment was calculated using the mean and standard deviation of the untreated DMSO control wells.

M. incognita J2 larvae = experiment: Meloidogyne incognita in vitro larval mobility assay; type: in vivo; conditions: 45 μM, 4 days; for Replicate 1 z-score / Replicate 2 z-score: z-score vs untreated DMSO wells; for pest or weed control at 45 µM: Meloidogyne incognita, 96 h
Procedure: M. incognita (Kofoid & White) Chitwood Race 1 (originally isolated in Maryland) was used for all experiments, and was maintained on pepper (Capsicum annuum L.) cv. PA-136 in a greenhouse as previously described^44. Infective J2 juveniles were collected as described in ref. 45. The microwell dose-response experiments were carried out similarly to previously described protocols^44,46. In brief, 50 μL of deionized water was added to the wells of 96-well polystyrene plates and 0.5 μL of test compound (or DMSO alone) was added to each well. Approximately 35 J2s were then added to each well in 49.5 μL of deionized water. The chemicals were tested at 45 μM, and the final concentration of DMSO in each well was 0.5% (v/v). DMSO alone was added to 3 separate wells. The plates were covered with plastic adhesive strips, and the lids of the plates were sealed with parafilm. The plates were incubated at 25° C. without shaking for 4 days. The percent of worms that were immobile (% immobile) was quantified by counting the number of immobile worms after 4 days of incubation, dividing the number of immobile worms by the total number of worms in the well, and then multiplying by 100. Two replicates were performed for each treatment. The z-score for each treatment was calculated using the mean and standard deviation of the untreated DMSO control wells. The average % immobile value was calculated across the two replicates. A test compound was considered most promising if the z-score was greater than 1.645 in both replicates.

[1] = average of the two replicates, read-out: Average % Immobile
[2] = replicate 1, read-out: Replicate 1 % Immobile
[3] = replicate 2, read-out: Replicate 2 % Immobile

With `Brc1ccc(-c2cn3c(n2)SCC3)cc1` [I-48] the “Number of Hatched Eggs” value (M. hapla eggs) was 0, the “Number of Hatched Eggs” value (M. hapla eggs; listed as 1-48) was “completely inhibited egg hatching” and the “Number of Hatched Eggs z-score” value (M. hapla eggs) was “[4.63]”. The “Replicate 1 z-score” value (M. incognita J2 larvae; replicate 1) was “[15.80]”, the “Replicate 2 z-score” value (M. incognita J2 larvae; replicate 2) was “[5.11]” and the pest or weed control at 45 µM (M. incognita J2 larvae; [1]) was 69%. For the same compound, the pest or weed control at 45 µM (M. incognita J2 larvae; [2]) was 100% and the pest or weed control at 45 µM (M. incognita J2 larvae; [3]) was 38%.
In the case of `Clc1ccc(-c2cn3c(n2)SCC3)cc1` [I-49], the “Number of Hatched Eggs” value (M. hapla eggs) is reported as 2, the “Number of Hatched Eggs z-score” value (M. hapla eggs) is reported as “[3.97]” and the “Replicate 1 z-score” value (M. incognita J2 larvae; replicate 1) is reported as “[15.80]”. For the same compound, the “Replicate 2 z-score” value (M. incognita J2 larvae; replicate 2) was “[16.33]”, the pest or weed control at 45 µM (M. incognita J2 larvae; [2]) was 100% and the pest or weed control at 45 µM (M. incognita J2 larvae; [3]) was 100%.
With `Cc1cn2cc(-c3ccc(OC(F)(F)F)cc3)nc2s1` [I-53] the “Replicate 1 z-score” value (M. incognita J2 larvae; replicate 1) was “[3.33]”, the “Replicate 2 z-score” value (M. incognita J2 larvae; replicate 2) was “[6.79]” and the pest or weed control at 45 µM (M. incognita J2 larvae; [1]) was 43.1%. The pest or weed control at 45 µM (M. incognita J2 larvae; [2]) was 39% and the pest or weed control at 45 µM (M. incognita J2 larvae; [3]) was 47.3%.
For `Cc1cn2cc(-c3ccc(OC(F)F)cc3)nc2s1` [I-54], the “Replicate 1 z-score” value (M. incognita J2 larvae; replicate 1) was “[1.73]”, the “Replicate 2 z-score” value (M. incognita J2 larvae; replicate 2) was “[2.15]” and the pest or weed control at 45 µM (M. incognita J2 larvae; [1]) was 26.4%. For the same compound, the pest or weed control at 45 µM (M. incognita J2 larvae; [2]) was 31.1% and the pest or weed control at 45 µM (M. incognita J2 larvae; [3]) was 21.7%.
For `FC(F)(F)Oc1ccc(-c2cn3ccsc3n2)cc1` [I-61], the “Number of Hatched Eggs” value (M. hapla eggs) was 1, the “Number of Hatched Eggs z-score” value (M. hapla eggs) was “[4.30]” and the “Replicate 1 z-score” value (M. incognita J2 larvae; replicate 1) was “[8.86]”. The “Replicate 2 z-score” value (M. incognita J2 larvae; replicate 2) was “[6.94]”, the pest or weed control at 45 µM (M. incognita J2 larvae; [1]) was 57.1% and the pest or weed control at 45 µM (M. incognita J2 larvae; [2]) was 66%. For the same compound, the pest or weed control at 45 µM (M. incognita J2 larvae; [3]) was 48.1%.
For `Cc1csc2nc(-c3ccc(OC(F)(F)F)cc3)cn12` [I-62], the “Number of Hatched Eggs” value (M. hapla eggs) was 3 and the “Number of Hatched Eggs z-score” value (M. hapla eggs) was “[3.64]”.
In the case of `FC(F)Oc1ccc(-c2cn3ccsc3n2)cc1` [I-63], the “Number of Hatched Eggs” value (M. hapla eggs) is reported as 2, the “Number of Hatched Eggs z-score” value (M. hapla eggs) is reported as “[3.97]” and the “Replicate 1 z-score” value (M. incognita J2 larvae; replicate 1) is reported as “[15.80]”. The “Replicate 2 z-score” value (M. incognita J2 larvae; replicate 2) was “[16.33]”, the pest or weed control at 45 µM (M. incognita J2 larvae; [2]) was 100% and the pest or weed control at 45 µM (M. incognita J2 larvae; [3]) was 100%.
`Cc1csc2nc(-c3ccc(OC(F)F)cc3)cn12` [I-64] was tested, and the “Number of Hatched Eggs” value (M. hapla eggs) was 4 and the “Number of Hatched Eggs z-score” value (M. hapla eggs) was “[3.31]”.
With `FC(F)(F)c1ccc(-c2cn3ccsc3n2)cc1` [I-68] the “Number of Hatched Eggs” value (M. hapla eggs) was 4 and the “Number of Hatched Eggs z-score” value (M. hapla eggs) was “[3.31]”.
In the case of `CCOC(=O)c1ccc(-c2cn3ccsc3n2)cc1` [I-72], the “Number of Hatched Eggs” value (M. hapla eggs) is reported as 4 and the “Number of Hatched Eggs z-score” value (M. hapla eggs) is reported as “[3.31]”.
With `Cc1cn2cc(-c3cccs3)nc2s1` [I-78] the “Number of Hatched Eggs” value (M. hapla eggs) was 3 and the “Number of Hatched Eggs z-score” value (M. hapla eggs) was “[3.64]”.
For `COc1c(-c2cn3ccsc3n2)ccc2ccccc12` [I-81], the “Number of Hatched Eggs” value (M. hapla eggs) was 3 and the “Number of Hatched Eggs z-score” value (M. hapla eggs) was “[3.64]”.
`Clc1ccc(-c2cn3ccsc3n2)s1` [I-84] was tested, and the “Number of Hatched Eggs” value (M. hapla eggs) was 0, the “Number of Hatched Eggs” value (M. hapla eggs; listed as 1-84) was “completely inhibited egg hatching” and the “Number of Hatched Eggs z-score” value (M. hapla eggs) was “[4.63]”. For the same compound, the “Replicate 1 z-score” value (M. incognita J2 larvae; replicate 1) was “[13.56]”, the “Replicate 2 z-score” value (M. incognita J2 larvae; replicate 2) was “[16.33]” and the pest or weed control at 45 µM (M. incognita J2 larvae; [1]) was no less than 75%. It also gave a pest or weed control at 45 µM (M. incognita J2 larvae; [2]) of 89.1% and a pest or weed control at 45 µM (M. incognita J2 larvae; [3]) of 100%.
`Cc1csc2nc(-c3ccc(Cl)s3)cn12` [I-85] was tested, and the “Number of Hatched Eggs” value (M. hapla eggs) was 4 and the “Number of Hatched Eggs z-score” value (M. hapla eggs) was “[3.31]”.
In the case of `Cc1sc2nc(-c3ccc(Cl)s3)cn2c1C` [I-86], the “Number of Hatched Eggs” value (M. hapla eggs) is reported as 4 and the “Number of Hatched Eggs z-score” value (M. hapla eggs) is reported as “[3.31]”.
In the case of `N#Cc1ccc(-c2cn3ccsc3n2)cc1` [I-87], the “Number of Hatched Eggs” value (M. hapla eggs) is reported as 3, the “Number of Hatched Eggs z-score” value (M. hapla eggs) is reported as “[3.64]” and the “Replicate 1 z-score” value (M. incognita J2 larvae; replicate 1) is reported as “[6.98]”. For the same compound, the “Replicate 2 z-score” value (M. incognita J2 larvae; replicate 2) was “[9.68]”, the pest or weed control at 45 µM (M. incognita J2 larvae; [1]) was 60.1% and the pest or weed control at 45 µM (M. incognita J2 larvae; [2]) was 56.9%. The pest or weed control at 45 µM (M. incognita J2 larvae; [3]) was 63.3%.
For `Fc1ccccc1-c1cn2ccsc2n1` [I-89], the “Number of Hatched Eggs” value (M. hapla eggs) was 3, the “Number of Hatched Eggs z-score” value (M. hapla eggs) was “[3.64]” and the “Replicate 1 z-score” value (M. incognita J2 larvae; replicate 1) was “[10.62]”. The “Replicate 2 z-score” value (M. incognita J2 larvae; replicate 2) was “[12.27]”, the pest or weed control at 45 µM (M. incognita J2 larvae; [1]) was no less than 75% and the pest or weed control at 45 µM (M. incognita J2 larvae; [2]) was 74.7%. It also gave a pest or weed control at 45 µM (M. incognita J2 larvae; [3]) of 77.6%.
For `O=Cc1c(-c2ccc(Cl)cc2)nc2sccn12` [I-93], the “Replicate 1 z-score” value (M. incognita J2 larvae; replicate 1) was “[15.80]”, the “Replicate 2 z-score” value (M. incognita J2 larvae; replicate 2) was “[12.15]” and the pest or weed control at 45 µM (M. incognita J2 larvae; [1]) was no less than 75%. For the same compound, the pest or weed control at 45 µM (M. incognita J2 larvae; [2]) was 100% and the pest or weed control at 45 µM (M. incognita J2 larvae; [3]) was 76.9%.
`O=C(O)c1cn2cc(-c3ccccc3)nc2s1` [I-94] was tested, and the “Number of Hatched Eggs” value (M. hapla eggs) was 4 and the “Number of Hatched Eggs z-score” value (M. hapla eggs) was “[3.31]”.
